In general, Kd refers to the concentration at which binding is half-saturated. The low end stands for a tighter complex, the high end for a looser complex.

For series [1], the target named is CkGH47 WT (Caulobacter sp. K31, UniProt B0SWV2). Nature of the series: Inhibition of CkGH47 WT monitored by enzymatic conversion of α-1,2-mannobiose to mannose. The format is biochemical, Caulobacter K31 strain. The settings on record: for inhibition of the wild-type GH47 model enzyme: even at high inhibitor concentrations. The method, then: (§1) Trans-Cyclosulfamidate Cyclitols Males et al.
Figure S4. Inhibition of CkGH47 by 6 monitored by the enzymatic conversion of mannobiose to mannose. 3 concentrations of the […]
and the reaction was incubated for 1 hour at 22 °C. The enzyme was heat denatured (90 °C for 5 minutes). Using the mannose detection kit, NADPH production at 340 nm was measured and converted to mannose concentration using a standard curve of […]
Figure S5. Docking of 6, in pink, into the crystal structure of Caulobacter GH47 (PDB ID: 4AYO), in gold, showing the distance between the oxygen of 6 and L310. Left: 6 was docked into the CkGH47 enzyme active site by least squares fit superposition in coot against the CkGH47 and kifunensine complex (PDB ID 5NE5). Right: Position of CkGH47 WT crystal structures of the inhibitors 6 (pink) and kifunensine (green); native is shown in gold (PDB ID: 4AYO) and CkGH47 in complex with kifunensine is shown in orange (PDB ID: 5NE5); there are 2 alternate conformations of leucine each with 50% occupancy in the crystal structure. […]
(§2) 2.1 Biochemical and biological methods
(§3) To obtain Michaelis-Menten kinetics
(§4) Lastly, to achieve an inhibition constant, the
(§5) The gradient of the graph, V0/Vi
(§6) After taking each time point, the sample was heat denatured at 95 °C for 5 minutes. The reactions were conducted in triplicate and averaged. […]
(§7) microplate spectrophotometer (BioTek). The mannose detection kit (Megazyme) was used to detect […]
(§8) dehydrogenase, was monitored at 340 nm. The absorbance after hexokinase was added to the mixture […]
(§9) 2.1.2 Isothermal titration calorimetry
(§10) MicroCal ITC200 calorimeter at 25 °C over 20 injections. The experiment was duplicated to obtain a […]
(§11) the MicroCal PEAK-ITC analysis software.
(§12) 2.2 Crystallographic data collection and refinement of CkGH47
(§13) 3′ and the reverse primer was 5′-[…]-3′. Protein production and purification was followed as described previously.[3]
(§14) Reference data in the form of a
(§15) Refinement of the model was conducted […]
(§16) conformation was conducted using […]. Details of the data collection and refinement statistics […]

A short description of series [2]: Chemical stability of the final compounds on storage. Type of series: physicochemical. An excerpt: 1,6-Cis-manno-cyclosulfate, 4, and 1,6-trans-manno-cyclosulfate, 5, were synthesized from mannose-configured cis-diol and trans-diol, respectively (ESI, Scheme S1 ^†).
Series [3] concerns the target T1, CkGH47 L310S (Caulobacter sp. K31, UniProt B0SWV2, L310S).
T1 sequence (B0SWV2 25-462 L310S): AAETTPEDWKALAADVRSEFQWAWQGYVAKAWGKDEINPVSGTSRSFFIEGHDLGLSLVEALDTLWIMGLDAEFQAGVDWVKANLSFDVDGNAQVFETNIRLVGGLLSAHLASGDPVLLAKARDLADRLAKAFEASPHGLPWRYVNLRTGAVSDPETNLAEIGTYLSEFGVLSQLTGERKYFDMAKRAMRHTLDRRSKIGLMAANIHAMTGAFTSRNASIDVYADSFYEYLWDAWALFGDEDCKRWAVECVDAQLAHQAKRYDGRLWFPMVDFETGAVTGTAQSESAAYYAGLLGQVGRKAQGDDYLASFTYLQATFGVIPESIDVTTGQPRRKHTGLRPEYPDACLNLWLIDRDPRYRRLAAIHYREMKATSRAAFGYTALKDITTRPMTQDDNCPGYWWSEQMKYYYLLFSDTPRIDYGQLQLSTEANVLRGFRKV
Nature of the series: Isothermal titration calorimetry. The format is binding, Caulobacter K31 strain.
Excerpt: as §1
Figure S6. Isothermal titration calorimetry binding thermodynamics between CkGH47 L310S and 6. A. raw data injection profile;
B. Titration curve. N = 1.01 ± 0.02 sites, ΔH = -7.39 ± 0.19 kcal mol-1.
Figure S7. Overlay of the human GH47 α-1,2-mannosidase structures highlighting the conserved active site. Crystal structure of ERManI is in orange (PDB ID: 1FMI); the remaining structures were predicted by Alphafold[5], in light blue is GMIB, in dark blue is GMIA, in purple is GMIC, in yellow is EDEM2, in red is EDEM3 and in pink is EDEM1. A. The crystal structure from this work of CkGH47 and 3 is in green. Residues annotated according to the numbering of CkGH47. B. The human GH47 enzymes are superposed minus the CkGH47 enzyme; the residues are annotated according to the numbering of HsERManI. […]
as §2, §3, §4, §5, §6, §7, §8, §9, §10, §11, §12, §13, §14, §15, §16
Figures of the structure were produced by using CCP4mg.
Background: In ITC the heat of successive injections is recorded.

Where [4] appears, read: isothermal titration calorimetry.

Sequence of CkGH47 WT (B0SWV2 entry or part of it): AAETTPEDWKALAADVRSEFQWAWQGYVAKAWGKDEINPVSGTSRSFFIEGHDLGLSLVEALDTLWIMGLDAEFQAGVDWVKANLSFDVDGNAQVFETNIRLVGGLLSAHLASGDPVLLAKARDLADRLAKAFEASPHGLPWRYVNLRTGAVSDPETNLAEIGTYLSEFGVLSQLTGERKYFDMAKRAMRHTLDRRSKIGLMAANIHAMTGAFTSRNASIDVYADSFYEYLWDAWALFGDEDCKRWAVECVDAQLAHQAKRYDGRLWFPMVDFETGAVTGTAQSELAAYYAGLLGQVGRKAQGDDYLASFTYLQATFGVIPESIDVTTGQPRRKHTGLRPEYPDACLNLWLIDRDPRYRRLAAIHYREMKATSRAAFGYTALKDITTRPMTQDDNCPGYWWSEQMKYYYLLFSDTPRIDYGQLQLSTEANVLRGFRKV

Take `O=S1(=O)N[C@@H]2[C@@H](O)[C@@H](O)[C@H](O)[C@@H](CO)[C@H]2O1` [compound 6, 1,6-trans-manno-cyclosulfamidate]: in series [1] (after the addition of 1 mM 6), the “α-1,2-mannobiose hydrolysed by the WT GH47 mannosidase to mannose” value was 82%. Moreover, the results for the “inhibition of the wild-type GH47 model enzyme” value in series [1] and in series [1] (listed as 1,6-trans-cyclic sulfamidate) were “no significant inhibition” and “does not inhibit”, respectively. For the same compound, the chemical stability entry in series [2] is “chemically stable”. The Kd in series [3] amounted to 970 nM. This compound also registered a N in series [3] (setting [4]) of 1.01 ± 0.02 sites. The compound also returned a ΔH in series [3] (setting [4]) of -7.39 ± 0.19 kcal/mol.

Source of the values: article PMC10685318, “Trans-cyclosulfamidate mannose-configured cyclitol allows isoform-dependent inhibition of GH47 α-D-mannosidases through a bump–hole strategy” (Chemical Science, 2023).
